ChEMBL document CHEMBL1156298, “New inhibitors for expression of IgE receptor on human mast cell” (Bioorg Med Chem Lett, 2010)
Active and inactive are the calls of the source. The calls are words filed in the database; no cut-off is given here.

Columns and labels:
[1] = Cytotoxicity against human HMC1 cells assessed induction of morphological changes at 50 uM; conditions: hmc1, 50 µM
[2] = system: HMC1; assay: Inhibition of FCepsilonRI expression in human HMC1 cells at 100 uM after 72 hrs by flow cytometry; format: functional, cell-based
[3] = system: HMC1; assay: Inhibition of FCepsilonRI expression in human HMC1 cells at 50 to 100 uM after 72 hrs by flow cytometry; format: functional, cell-based
[4] = Cytotoxicity against human HMC1 cells assessed induction of cell death at 50 uM; format: cell-based; conditions: hmc1, 50 µM
[5] = system: HMC1; assay: Inhibition of FCepsilonRI beta subunit mRNA expression in human HMC1 cells at 50 uM after 36 hrs by RT-PCR analysis; format: functional, cell-based
[6] = system: HMC1; assay: Inhibition of FCepsilonRI alpha subunit mRNA expression in human HMC1 cells at 50 uM after 36 hrs by RT-PCR analysis; format: functional, cell-based
[7] = system: HMC1; assay: Inhibition of FCepsilonRI gamma subunit mRNA expression in human HMC1 cells at 50 uM after 36 hrs by RT-PCR analysis; format: functional, cell-based

Row | Compound | Activity [1] | inhibition [2] | inhibition [3] | also measured
1 | COc1cc(-c2[o+]c3cc(O)cc(O)c3cc2O)cc(OC)c1O [MALVIDIN] | Toxic | – | – | –
2 | Oc1cc(O)c2c(c1)O[C@H](c1ccc(O)c(O)c1)[C@H](O)C2 | – | Active | – | –
3 | COc1c(O)cc(C(=O)O[C@@H]2Cc3c(O)cc(O)cc3O[C@@H]2c2cc(O)c(O)c(O)c2)cc1O | – | inactive | inactive | –
4 | COc1c(O)cc([C@H]2Oc3cc(O)cc(O)c3C[C@H]2OC(=O)c2cc(O)c(O)c(O)c2)cc1O | – | inactive | inactive | –
5 | O=C(O[C@@H]1Cc2c(O)cc(O)cc2O[C@H]1c1cc(O)c(O)c(O)c1)c1cc(O)c(O)c(O)c1 | – | Active | – | –
6 | COc1c(O)cc(O)c2c(=O)cc(-c3ccccc3)oc12 [WOGONIN] | Toxic | – | – | –
7 | O=C(O[C@@H]1Cc2c(O)cc(O)cc2O[C@@H]1c1ccc(O)c(O)c1)c1cc(O)c(O)c(O)c1 | – | Active | – | –
8 | O=c1cc(-c2ccc(O)c(O)c2)oc2c([C@@H]3O[C@H](CO)[C@@H](O)[C@H](O)[C@H]3O)c(O)cc(O)c12 [ORIENTIN] | Toxic | – | – | –
9 | Oc1cc(O)c2cc(O)c(-c3cc(O)c(O)c(O)c3)[o+]c2c1 | – | – | Active | –
10 | COc1cc(C(=O)O[C@@H]2Cc3c(O)cc(O)cc3O[C@@H]2c2cc(O)c(O)c(O)c2)cc(O)c1O | – | inactive | inactive | –
11 | COc1cc([C@H]2Oc3cc(O)cc(O)c3C[C@H]2OC(=O)c2cc(O)c(O)c(O)c2)cc(O)c1O | – | inactive | inactive | –
12 | O=c1cc(-c2ccc(O)cc2)oc2cc(O)c(O)c(O)c12 [SCUTELLAREIN] | – | – | – | Activity [4]: Toxic
13 | Oc1cc(O)c2cc(O)c(-c3ccc(O)c(O)c3)[o+]c2c1 [CYANIDIN] | Toxic | – | – | –
14 | O=c1cc(-c2ccccc2)oc2c(O)c(O)cc(O)c12 [NORWOGONIN] | – | – | – | Activity [4]: Toxic
15 | O=c1cc(-c2ccccc2)oc2cc(O)c(O)c(O)c12 [BAICALEIN] | Toxic | – | – | –
16 | O=c1cc(-c2ccc(O)c(O)c2)oc2cc(O)cc(O)c12 [LUTEOLIN] | Toxic | – | – | –
17 | O=C(O[C@@H]1Cc2c(O)cc(O)cc2O[C@@H]1c1cc(O)c(O)c(O)c1)c1cc(O)c(O)c(O)c1 | – | – | – | inhibition [5]: inactive; inhibition [6]: inactive; inhibition [7]: Active
18 | O=c1cc(-c2ccc(O)cc2)oc2cc(O)cc(O)c12 [APIGENIN] | Toxic | – | – | –
19 | O=c1cc(-c2cc(O)c(O)c(O)c2)oc2cc(O)cc(O)c12 | – | – | Active | –
